Data from the supplement of paper PMC8967900.

tested on: P30-OHKUBO; assay: selective drug sensitivity score (sDSS, relative to normal bone marrow) (sDSS (score)); higher = more potent and effective on the cell line relative to normal bone marrow cells; conditions: 72 h
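Note: ALL cell lines in 384-well plates, five doses spanning 10,000-fold, each plate scaled between vehicle and 100 µmol/L benzalkonium chloride controls, sDSS an adapted area-under-curve metric.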

Structure (SMILES) | selective drug sensitivity score
CC(C)(C)c1cnc(CSc2cnc(NC(=O)C3CCNCC3)s2)o1 [SNS-032] (top concentration 10000 nM) | -0.34
Cn1cncc1[C@@](N)(c1ccc(Cl)cc1)c1ccc2c(c1)c(-c1cccc(Cl)c1)cc(=O)n2C [Tipifarnib] (top concentration 10000 nM) | 3.5
COc1ccccc1S(=O)(=O)Nc1ccc2c(c1)CN(C)C(=O)N2 [PFI-1] (top concentration 30000 nM) | 6.1
Cc1cn(-c2cc(NC(=O)c3ccc(C)c(Nc4nccc(-c5cnccn5)n4)c3)cc(C(F)(F)F)c2)cn1 [Radotinib] (top concentration 10000 nM) | 5.1
CC[C@H](Nc1ncnc2[nH]cnc12)c1nc2cccc(F)c2c(=O)n1-c1ccccc1 [Idelalisib] (top concentration 10000 nM) | 7.94
Cc1noc2c1-c1ccccc1C(c1ccc(Cl)cc1)=N[C@H]2CC(N)=O [CPI-0610] (top concentration 10000 nM) | 6.1
C=C(c1ccc(C(=O)O)cc1)c1cc2c(cc1C)C(C)(C)CCC2(C)C [Bexarotene] (top concentration 10000 nM) | -5.3
CC1(COc2ccc3c(c2)ncn3-c2ccc3cccc(N4CCC(N)CC4)c3n2)COC1 [Crenolanib] (top concentration 10000 nM) | -2.72
O=C(Nc1cc(Oc2cc(F)c(NC(=O)C3(C(=O)Nc4ccc(F)cc4)CC3)cc2F)ccn1)C1CC1 [Altiratinib] (top concentration 10000 nM) | 1.84
O=C(Nc1ccncc1)C(=O)c1cn(Cc2ccc(Cl)cc2)c2ccccc12 [Indibulin] (top concentration 10000 nM) | 6.14
Cc1ncc(-c2ccnc(Nc3ccc(S(C)(=O)=O)cc3)n2)n1C(C)C [AZD-5438] (top concentration 10000 nM) | 0.84
NC[C@@](O)(c1ccc(Cl)cc1)c1ccc(-c2cn[nH]c2)cc1 (top concentration 10000 nM) | 3.68
Cn1c(Nc2ccc(C(F)(F)F)cc2)nc2cc(Oc3ccnc(-c4ncc(C(F)(F)F)[nH]4)c3)ccc21 [NVP-RAF265] (top concentration 1000 nM) | 4.38
CNCc1ccc(-c2[nH]c3cc(F)cc4c3c2CCNC4=O)cc1 [Rucaparib] (top concentration 10000 nM) | 0.42
O=C(CCCCCCC(=O)Nc1ccc([C@H]2O[C@@H](CSc3nc(-c4ccccc4)c(-c4ccccc4)o3)C[C@@H](c3ccc(CO)cc3)O2)cc1)NO [Tubacin] (top concentration 10000 nM) | 7.44
N#CCNC(=O)c1ccc(-c2ccnc(Nc3ccc(N4CCOCC4)cc3)n2)cc1 [Momelotinib] (top concentration 10000 nM) | 1.58
Nc1cccc2c1CN(C1CCC(=O)NC1=O)C2=O (stereo not given) [Lenalidomide] (top concentration 100000 nM) | -2.28
CCN1CCN(Cc2ccc(Nc3ncc(F)c(-c4cc(F)c5nc(C)n(C(C)C)c5c4)n3)nc2)CC1 [Abemaciclib] (top concentration 2500 nM) | 5.94

tested on: RCH-ACV; assay: as above; conditions: 72 h

Structure (SMILES) | selective drug sensitivity score
CC(C)(C)c1cnc(CSc2cnc(NC(=O)C3CCNCC3)s2)o1 [SNS-032] (top concentration 10000 nM) | 1.26
Cn1cncc1[C@@](N)(c1ccc(Cl)cc1)c1ccc2c(c1)c(-c1cccc(Cl)c1)cc(=O)n2C [Tipifarnib] (top concentration 10000 nM) | 6.9
COc1ccccc1S(=O)(=O)Nc1ccc2c(c1)CN(C)C(=O)N2 [PFI-1] (top concentration 30000 nM) | 5.4
Cc1cn(-c2cc(NC(=O)c3ccc(C)c(Nc4nccc(-c5cnccn5)n4)c3)cc(C(F)(F)F)c2)cn1 [Radotinib] (top concentration 10000 nM) | 9.4
CC[C@H](Nc1ncnc2[nH]cnc12)c1nc2cccc(F)c2c(=O)n1-c1ccccc1 [Idelalisib] (top concentration 10000 nM) | 23.8
Cc1noc2c1-c1ccccc1C(c1ccc(Cl)cc1)=N[C@H]2CC(N)=O [CPI-0610] (top concentration 10000 nM) | 10.9
C=C(c1ccc(C(=O)O)cc1)c1cc2c(cc1C)C(C)(C)CCC2(C)C [Bexarotene] (top concentration 10000 nM) | -5.1
CC1(COc2ccc3c(c2)ncn3-c2ccc3cccc(N4CCC(N)CC4)c3n2)COC1 [Crenolanib] (top concentration 10000 nM) | -1.12
O=C(Nc1cc(Oc2cc(F)c(NC(=O)C3(C(=O)Nc4ccc(F)cc4)CC3)cc2F)ccn1)C1CC1 [Altiratinib] (top concentration 10000 nM) | 7.24
O=C(Nc1ccncc1)C(=O)c1cn(Cc2ccc(Cl)cc2)c2ccccc12 [Indibulin] (top concentration 10000 nM) | 14.6
Cc1ncc(-c2ccnc(Nc3ccc(S(C)(=O)=O)cc3)n2)n1C(C)C [AZD-5438] (top concentration 10000 nM) | 2.44
NC[C@@](O)(c1ccc(Cl)cc1)c1ccc(-c2cn[nH]c2)cc1 (top concentration 10000 nM) | 7.58
Cn1c(Nc2ccc(C(F)(F)F)cc2)nc2cc(Oc3ccnc(-c4ncc(C(F)(F)F)[nH]4)c3)ccc21 [NVP-RAF265] (top concentration 1000 nM) | 6.68
CNCc1ccc(-c2[nH]c3cc(F)cc4c3c2CCNC4=O)cc1 [Rucaparib] (top concentration 10000 nM) | 1.02
O=C(CCCCCCC(=O)Nc1ccc([C@H]2O[C@@H](CSc3nc(-c4ccccc4)c(-c4ccccc4)o3)C[C@@H](c3ccc(CO)cc3)O2)cc1)NO [Tubacin] (top concentration 10000 nM) | 11.2
N#CCNC(=O)c1ccc(-c2ccnc(Nc3ccc(N4CCOCC4)cc3)n2)cc1 [Momelotinib] (top concentration 10000 nM) | 5.78
Nc1cccc2c1CN(C1CCC(=O)NC1=O)C2=O (stereo not given) [Lenalidomide] (top concentration 100000 nM) | 4.42
CCN1CCN(Cc2ccc(Nc3ncc(F)c(-c4cc(F)c5nc(C)n(C(C)C)c5c4)n3)nc2)CC1 [Abemaciclib] (top concentration 2500 nM) | 8.74

tested on: REH; assay: as above; conditions: 72 h

Structure (SMILES) | selective drug sensitivity score
CC(C)(C)c1cnc(CSc2cnc(NC(=O)C3CCNCC3)s2)o1 [SNS-032] (top concentration 10000 nM) | -5.44
Cn1cncc1[C@@](N)(c1ccc(Cl)cc1)c1ccc2c(c1)c(-c1cccc(Cl)c1)cc(=O)n2C [Tipifarnib] (top concentration 10000 nM) | 14
COc1ccccc1S(=O)(=O)Nc1ccc2c(c1)CN(C)C(=O)N2 [PFI-1] (top concentration 30000 nM) | -0.6
Cc1cn(-c2cc(NC(=O)c3ccc(C)c(Nc4nccc(-c5cnccn5)n4)c3)cc(C(F)(F)F)c2)cn1 [Radotinib] (top concentration 10000 nM) | 0
CC[C@H](Nc1ncnc2[nH]cnc12)c1nc2cccc(F)c2c(=O)n1-c1ccccc1 [Idelalisib] (top concentration 10000 nM) | 2.74
Cc1noc2c1-c1ccccc1C(c1ccc(Cl)cc1)=N[C@H]2CC(N)=O [CPI-0610] (top concentration 10000 nM) | -1.2
C=C(c1ccc(C(=O)O)cc1)c1cc2c(cc1C)C(C)(C)CCC2(C)C [Bexarotene] (top concentration 10000 nM) | -3.8
CC1(COc2ccc3c(c2)ncn3-c2ccc3cccc(N4CCC(N)CC4)c3n2)COC1 [Crenolanib] (top concentration 10000 nM) | -4.32
O=C(Nc1cc(Oc2cc(F)c(NC(=O)C3(C(=O)Nc4ccc(F)cc4)CC3)cc2F)ccn1)C1CC1 [Altiratinib] (top concentration 10000 nM) | 3.84
